Data reported in patent US20090105206A1, “Copper Melphalan And Copper Tegafur As Anti-Tumor Agents” (priority 2004, published 2009).
Several values for one entry are separate records, joined by “and”; a condition that tells them apart may be missing. Equal values may be shown once.

Assays:
[1] = in water: light blue coloring of the solution, foam on shaking
[2] = tested on: murine renal cell carcinoma (RENCA) tumor cells applied orthotopically; experiment: Example 5: orthotopic RENCA model, late treatment from Day 10; type: in vivo, Balb/c mouse
Description: (§1) The tests were carried out on a murine renal cell carcinoma model (RENCA) of the Balb/c mouse. The tumor cells were applied orthotopically into the left-hand renal capsule of syngenic mice. The effect of the treatment carried out on a primary tumor (in the implanted kidney), metastases (predominantly in the lungs, spleen and intestinal lymph nodes) and vessel density were investigated.
(§2) After anesthesia by means of isoflurane narcosis (O2— flow approx. 2.0 l with 0.5-1.5% isoflurane) a small incision was made in the mouse's left flank. The kidney was prepared and presented free from the peritoneum. A 27 G needle was introduced via the lower kidney pole through to below the renal capsule with visual inspection, and […] in 70 μl aliquots respectively applied once. The occurrence of a visible liquid-filled blister between kidney parenchyma and renal capsule and the discoloration of the kidneys were regarded as criteria for successful application. The kidney was subsequently reset and the incision into the abdominal wall closed by means of fascia stitches and cutaneous stitches with absorbable stitching material. Five test groups with ten animals respectively were formed. Group 1 negative control, group 2 positive control melphalan (Glaxo), group 3 and 4 MOC melphalan 2.5 mg/kg and 5 mg/kg. In the case of group 5 an antiangiogenically effective substance was applied as the positive control. The start of treatment was fixed for day 1 post op. for Cu(melphalan)2. Treatment was carried out daily up to day seven (see treatment model). The test was ended after 19 days since, owing to their size, the control tumors required termination for ethical reasons.
(§3) After selecting the animals the tissues to be examined were quickly transferred into liquid nitrogen and then frozen at −80° C. 5-10 μm thick sections were prepared from the tissue parts. The preparations were immunohistochemically dyed with an anti-CD31 antibody (Pecam-1) and the number of vessels in the control and treatment groups counted. Two sections of each tumor with three areas respectively were used for counting the vessels.
The study report matches that of Example 4, differing only in terms of treatment intervals and dose groups. Four test groups with ten animals respectively were formed. Group 1 negative control, group 2 positive control melphalan (Glaxo), groups 3 and 4 Cu(melphalan)2 5 mg/kg and 7.5 mg/kg. The start of treatment was fixed for day 10 post op. for all groups. The intention was for daily treatment from day 10 until day 17 (see treatment model). Owing to toxicities the treatment period was reduced to day 10-14. After 18 days the test was ended since, owing to their size, the control tumors required termination for ethical reasons.
• The implantation day was counted as day 0. • Duration of the test 18 days. • Number of animals at beginning of test 40; no animals died during the op.

[3] = tested on: OVCAR-3/P19 tumor cells; experiment: Example 6: NOD/SCID mice s.c. injected with OVCAR-3 tumor cells; type: in vivo, female NOD/SCID mice; design: Vol (tumor volume) Day 20 / Vol (tumor volume) Day 30 / Vol (tumor volume) Day 37: unit: cm^3
Description: 2×10^6 OVCAR-3/P19 tumor cells were s.c. injected into female NOD/SCID mice. The mice were treated as follows.
The treatment began with a mean tumor volume of 80 mm^3.
To level possible differences in tumor volume at the start of treatment in the individual groups and to make evident differences owing to the low absolute volumes in the treatment groups, the relative tumor volumes (RTV) have been analyzed. The relative tumor volume results from the ratio of the volume on day x and the tumor volume at the start of treatment in the same test animal. […] The tumor growth was stopped in group 2 after just 7 days. After 3 days of constant tumor volume a tumor regression began from day 30 (10th day of treatment) in the test animals treated with copper-melphalan.

[4] = tested on: murine renal cell carcinoma (RENCA) tumor cells applied orthotopically; experiment: Example 4: orthotopic renal cell carcinoma model (RENCA), treatment Day 1-7; primary tumor, metastases, vessel density (anti-CD31); type: in vivo, Balb/c mouse; conditions: Melphalan 16.4 μmol/kg (5 mg/kg/d) i.p. Day 1-7, individual animals
Description: as §1, §2
• The implantation day was counted as day 0. • Duration of the test 19 days. • Number of animals at beginning of test 50, no animals died during the op.
as §3

[5] = Melphalan 16.4 μmol/kg (5 mg/kg/d) i.p. Day 10-14, day 18, individual animals
[6] = Gr. 2, 5 mg/kg melphalan i.p., individual animals
[7] = Gr. 2, 5 mg/kg melphalan i.p., n = 8
[8] = Gr. 2, 5 mg/kg melphalan i.p., n = 8, baseline

O=c1[n-]c(=O)n(C2CCCO2)cc1F.O=c1[n-]c(=O)n(C2CCCO2)cc1F.[Cu+2] (centres unmarked) [Cu(tegafur)2]
solubility behavior [1]: substantially matched that of a copper(II) salt

N[C@@H](Cc1ccc(N(CCCl)CCCl)cc1)C(=O)O [Melphalan, 4-[bis-(2-chloroethyl)-amino]-L-phenylalanine]
Kidney weight [2, 5]: 2.77 gr and 1.38 gr and 0.69 gr and 2.91 gr and 1.90 gr (2×) and 1.63 gr and 2.11 gr and 1.45 gr and 1.13 gr | Lung weight [2, 5]: 0.14 gr and 0.15 gr and 0.13 gr (2×) and 0.28 gr and 0.11 gr and 0.38 gr and 0.10 gr and 0.31 gr | Number of intestinal lymph node metastases [2, 5]: 91 and 0 (3×) and 49 and 17 and 22 and 32 and 84 | Number of lung metastases (late treatment day 10-14) [2, 5]: 304 and 614 and 317 and 5 and 750 (3×) and 71 and 500 and 46 | Vessel density, later start of treatment day 10-14 ([2]; Melphalan 16.4 μmol/kg (5 mg/kg/d) i.p. Day 10-14, individual sections): 36 (2×) and 28 and 42 and 41 and 68 and 35 and 47 and 32 and 37 and 64 and 62 and 40 (2×) and 34 | Kidney volume ([2]; Melphalan 16.4 μmol/kg (5 mg/kg/d) i.p. from Day 10 (planned 10-17, reduced to 10-14), test ended day 18, individual animals): 3.94 cm^3 and 2.59 cm^3 and 2.08 cm^3 and 4.25 cm^3 and 2.84 cm^3 and 2.20 cm^3 and 3.91 cm^3 and 3.63 cm^3 and 2.80 cm^3 and 3.23 cm^3 | Vol (tumor volume) Day 20 ([3]; Gr. 2, 5 mg/kg melphalan i.p. days 21-37 every 2nd day, Day 20 = start of treatment (baseline), individual animals): 0.04 (2×) and 0.03 and 0.10 (2×) and 0.20 and 0.05 and 0.12 | RTV (relative tumor volume) Day 20 ([3]; Gr. 2, 5 mg/kg melphalan i.p., Day 20 = start of treatment (baseline), individual animals): 1.00 | RTV (relative tumor volume) Day 30 [3, 6]: 2.75 and 3.00 and 1.40 and 1.75 and 3.20 and 1.42 and 2.20 and 2.50 | RTV (relative tumor volume) Day 37 [3, 6]: 1.98 and 2.37 and 0.81 and 1.05 and 1.66 and 0.82 and 1.71 and 1.18 | Vol (tumor volume) Day 30 [3, 6]: 0.11 and 0.09 and 0.14 and 0.35 and 0.16 and 0.17 and 0.22 and 0.10 | Vol (tumor volume) Day 37 [3, 6]: 0.08 (3×) and 0.07 and 0.21 and 0.10 and 0.17 and 0.05 | RTV Day 30, mean [3, 7]: 2.28 | RTV Day 30, median [3, 7]: 2.35 | RTV Day 37, mean [3, 7]: 1.45 | RTV Day 37, median [3, 7]: 1.42 | Vol Day 30, mean [3, 7]: 0.17 | Vol Day 30, median [3, 7]: 0.15 | Vol Day 37, mean [3, 7]: 0.11 | Vol Day 37, median [3, 7]: 0.08 | RTV Day 20, mean [3, 8]: 1.00 | RTV Day 20, median [3, 8]: 1.00 | Vol Day 20, mean [3, 8]: 0.09 | Vol Day 20, median [3, 8]: 0.08 | mice with RTV>1 on day 37 ([3]; Gr. 2, 5 mg/kg melphalan, 6 of 8 mice): 75% | tumor regression / growth at the end of treatment ([3]; Gr. 2, 5 mg/kg melphalan, range over test animals): between 20% tumor regression and 98% growth | Kidney weight ([4]; day 19): 1.70 gr and 0.38 gr and 0.44 gr and 0.13 gr and 1.02 gr and 1.23 gr and 0.12 gr and 0.34 gr and 0.40 gr and 0.65 gr | Lung weight ([4]; day 19): 0.12 gr (2×) and 0.20 gr and 0.13 gr and 0.76 gr and 0.10 gr and 0.25 gr and 0.48 gr and 0.22 gr and 0.14 gr | Number of intestinal lymph node metastases ([4]; day 19): 0 (6×) and 9 and 2 and 8 and 5 | Number of lung metastases ([4]; day 19): 7 and 273 and 1 and >750 (2×) and 28 (2×) and 5 and 640 and 328 | Kidney volume ([4]; test ended day 19): 2.69 cm^3 and 0.58 cm^3 and 1.3 cm^3 and 0.28 cm^3 and 1.76 cm^3 and 2.00 cm^3 and 0.37 cm^3 and 0.77 cm^3 and 1.26 cm^3 and 1.60 cm^3
